# Reference: paper PMC4814829, “Design, synthesis, crystallization and biological evaluation of new symmetrical biscationic compounds as selective inhibitors of human Choline Kinase α1 (ChoKα1)” (Scientific Reports, 2016)
# Where two headings read alike, the source gives them in different places.
# What was measured:
# human ChoKα1 = biological target: T1, human ChoKα1 (Homo sapiens, UniProt P35790); assay: Tryptophan fluorescence quenching; type: binding; conditions: mean ± S.D. of at least three independent experiments; 25 °C, enzyme 1 μM; read-out: HsChoKα1 Kd
# T1 construct: made in house
# Procedure: All compounds were prepared in 100% DMSO. Their Kds against human ChoKα1 were measured by monitoring the quenching of tryptophan fluorescence. All experiments were performed in a Cary Eclipse spectrofluorometer (Varian) at 25 °C with the enzymes at 1 μM, and concentrations of compounds varying from 0.1 to 5 μM for ChoKα1 in 25 mM Tris, 150 mM NaCl, pH 7.5. Fluorescence emission spectra were recorded in the 300–400 nm range with an excitation wavelength of 280 nm, with slit width of 5 nm. Controls were determined by incubating the enzymes with equivalent amounts of DMSO. As indicated previously, data analysis was performed in Prism (GraphPad software) considering a model with a single binding site (Eq. 1), where F0 is the intrinsic fluorescence of the enzyme in the absence of quencher (Q), F1 is the observed fluorescence at a given quencher concentration, fa is the fractional degree of fluorescence, and Kd is the dissociation constant.
# purified human ChoKα1 = purified human ChoKα1 (Homo sapiens, UniProt P35790); assay: Determination of human choline kinase α1 activity ([methyl-14C]choline incorporation into phosphocholine); type: biochemical
# Procedure: The effect of the different inhibitors on human choline kinase (ChoK) was assayed in ChoKα1 purified as previously described[32]. In each experiment DMSO-assays were always run in parallel as a control. DMSO in no case exceeded a concentration of 0.1% in order to avoid unspecific ChoK inhibition. ChoK activity was assayed by measuring the rate of incorporation of ^14C from [methyl-^14C]choline into phosphocholine both in the presence or absence of different inhibitor concentrations. Briefly, the final reaction mixture contained 100 mM Tris (pH 8.5), 10 mM MgCl2, and 10 mM ATP, and 20 ng of purified ChoKα1. […] The assay was stopped by immersing the reaction tubes in boiling water for 3 min. Aliquots of the reaction mixture were applied to the origin of Silica Gel plates in the presence of phosphocholine (0.1 mg) and choline (0.1 mg) as carriers. The chromatography was developed in methanol/0.6% NaCl/28% NH4OH in water (50:50:5, v/v/v) as solvent. Phosphocholine was visualized under exposure to iodine vapor and the corresponding spot was scraped and transferred to scintillation vials for measurement of radioactivity by a Beckman 6000-TA (Madrid, Spain) liquid-scintillation counter. At least three experiments were performed in all assays.
# A549 cells = assay: Antiproliferative MTT assay; type: cell-based; conditions: Homo sapiens, 72 h, mean ± SEM
# Procedure: (§1) Human T-cell leukemia (Jurkat), human B-cell leukemia (RS 4,11) and human promyelocytic leukemia (HL-60) cells were grown in RPMI-1640 medium (Gibco, Milan, Italy). Breast adenocarcinoma (MCF-7 and MDA-MB-231), human non-small cell lung carcinoma (A549), human cervix carcinoma (HeLa), human prostate adenocarcinoma (PC-3), and human colon adenocarcinoma (HT-29) cells were grown in DMEM medium (Gibco, Milan, Italy). Both media were supplemented with 115 units/mL of penicillin G (Gibco, Milan, Italy), 115 μg/mL of streptomycin (Invitrogen, Milan, Italy) and 10% fetal bovine serum (Invitrogen, Milan, Italy). Stock solutions (10 mM) of the different compounds were obtained by dissolving them in DMSO. Individual wells of 96-well tissue-culture microtiter plates were inoculated with 100 μL of complete medium containing 8 × 10^3 cells. The plates were incubated at 37 °C in a humidified 5% CO2 incubator for 18 h prior to the experiments. After medium removal, 100 μL of fresh medium containing the test compound at different concentrations was added to each well and incubated at 37 °C for 72 h. The percentage of DMSO in the medium in no case exceeded 0.25%.
# HL-60 cells = assay: Antiproliferative MTT assay; type: cell-based; conditions: Homo sapiens, 72 h, mean ± SEM
# Procedure: as §1
# HT-29 cells = assay: Antiproliferative MTT assay; type: cell-based; conditions: Homo sapiens, 72 h, mean ± SEM
# Procedure: as §1
# HeLa cells = assay: Antiproliferative MTT assay; type: cell-based; conditions: Homo sapiens, 72 h, mean ± SEM
# Procedure: as §1
# Jurkat cells = assay: Antiproliferative MTT assay; type: cell-based; conditions: Homo sapiens, 72 h, mean ± SEM
# Procedure: as §1
# MCF-7 cells = assay: Antiproliferative MTT assay; type: cell-based; conditions: Homo sapiens, MCF7, 72 h, mean ± SEM
# Procedure: as §1
# MDA-MB-231 cells = assay: Antiproliferative MTT assay; type: cell-based; conditions: Homo sapiens, 72 h, mean ± SEM
# Procedure: as §1
# PC-3 cells = assay: Antiproliferative MTT assay; type: cell-based; conditions: Homo sapiens, 72 h, mean ± SEM
# Procedure: as §1
# RS4,11 cells = assay: Antiproliferative MTT assay; type: cell-based; conditions: Homo sapiens, 72 h, mean ± SEM
# Procedure: as §1
# PBL (+Pha) = assay: Antiproliferative assay in non-tumoral cells (MTT); type: cell-based; conditions: Homo sapiens, non-tumoral cells stimulated with phytohematoagglutinin, 72 h, mean ± SEM
# Procedure: (§2) Peripheral mononuclear cells (PBMC) from healthy donors were obtained by separation on Lymphoprep (Fresenius KABI Norge AS) gradient. After extensive washing, cells were resuspended (1 × 10^6 cells/mL) in RPMI-1640 with 10% fetal bovine serum and incubated overnight. For cytotoxicity evaluations in proliferating PBL cultures, non-adherent cells were resuspended at 5 × 10^5 cells/mL in growth medium, containing 2.5 μg/mL PHA (Irvine Scientific). Different concentrations of the test compounds were added, and viability was determined 72 h later by the MTT test. For cytotoxicity evaluations in resting PBL cultures, non-adherent cells were resuspended (5 × 10^5 cells/mL) and treated for 72 h with the test compounds, as described above.
# PBL (resting) = assay: Antiproliferative assay in non-tumoral cells (MTT); type: cell-based; conditions: Homo sapiens, 72 h, mean ± SEM
# Procedure: as §2
# Human fibroblasts = assay: Antiproliferative assay in non-tumoral cells; type: cell-based; conditions: Fibroblast, mean ± SEM
# Excerpt: Human fibroblasts from foreskin were isolated as previously described[58] and maintained in DMEM medium with 10% fetal bovine serum added.
# [1] = tested on: panel of nine different human tumor-cell lines; assay: Antiproliferative activity against the panel of nine human tumor-cell lines; type: cell-based; conditions: for GI50: Homo sapiens, range or bound over all tested cell lines, read-out: GI50 across the tumor-cell line panel
# Procedure: as §1
# HUVEC = assay: Antiproliferative assay in non-tumoral cells; type: cell-based; conditions: Homo sapiens, mean ± SEM
# Procedure: Human Umbilical Vein Endothelial cells (HUVEC), were prepared from human umbilical-cord veins, as previously described. The adherent cells were maintained in M200 medium added by LSGS (low serum growth supplement), containing FBS, hydrocortisone, hEGF, bFGF, heparin, gentamycin/amphotericin (Life Technologies, Monza, Italy). Once confluent, the cells were detached by trypsin–EDTA solution and used in experiments from the first to sixth passages.
# [2] = mean ± SEM, three independent experiments, read-out: IC50 ChoKα1 purified
# purified human ChoKα1, sequence (P35790 whole entry): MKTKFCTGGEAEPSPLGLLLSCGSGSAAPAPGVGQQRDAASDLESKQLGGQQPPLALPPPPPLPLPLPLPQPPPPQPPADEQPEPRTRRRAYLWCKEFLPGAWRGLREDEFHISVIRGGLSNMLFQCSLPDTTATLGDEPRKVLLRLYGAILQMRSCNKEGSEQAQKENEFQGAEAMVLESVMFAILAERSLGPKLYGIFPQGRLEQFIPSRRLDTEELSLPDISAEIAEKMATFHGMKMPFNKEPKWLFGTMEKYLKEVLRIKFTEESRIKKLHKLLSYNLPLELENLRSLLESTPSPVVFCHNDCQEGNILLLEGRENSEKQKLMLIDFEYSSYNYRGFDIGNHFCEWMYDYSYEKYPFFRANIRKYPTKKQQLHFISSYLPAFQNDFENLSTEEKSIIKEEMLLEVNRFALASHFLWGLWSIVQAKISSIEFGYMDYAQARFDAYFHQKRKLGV
# T1 sequence (P35790 whole entry): as above
Compound,Kd (human ChoKα1),IC50 (purified human ChoKα1; [2]),GI50 (A549 cells),GI50 (HL-60 cells),GI50 (HT-29 cells),GI50 (HeLa cells),GI50 (Jurkat cells),GI50 (MCF-7 cells),GI50 (MDA-MB-231 cells),GI50 (PC-3 cells),"GI50 (RS4,11 cells)",GI50 (PBL (+Pha)),GI50 (PBL (resting)),GI50 (Human fibroblasts),GI50 [1],IC50 (purified human ChoKα1),Antiproliferative activity in all cell lines (in words) [1],GI50 (HUVEC)
"CN(C)c1cc[n+](Cc2ccc(CCCCc3ccc(C[n+]4ccc(N(C)c5ccc(Cl)cc5)cc4)cc3)cc2)cc1 [Compound 4, reference compound]",110 ± 10 nM,–,–,–,–,–,–,–,–,–,–,–,–,–,–,–,–,–
"c1cc(OCCOc2ccc(C[n+]3ccc(N4CCCC4)cc3)cc2)ccc1C[n+]1ccc(N2CCCC2)cc1 [Compound 10b, 1,1′-(((ethane-1,2-diylbis(oxy))bis(4,1-phenylene))bis(methylene))bis(4-(pyrrolidin-1-yl)pyridinium) bromide]",–,9.56 ± 1.45 µM,2300 ± 1100 nM,42 ± 5 nM,4300 ± 420 nM,82 ± 41 nM,68 ± 16 nM,170 ± 32 nM,90 ± 20 nM,4500 ± 1100 nM,1120 ± 220 nM,1880 ± 710 nM,34800 ± 15600 nM,30.5 ± 9.6 µM,0.042 to 4.5 µM,–,–,–
"CN(c1ccc(Cl)cc1)c1cc[n+](Cc2ccc(OCCOc3ccc(C[n+]4ccc(N(C)c5ccc(Cl)cc5)cc4)cc3)cc2)cc1 [Compound 10c, 1,1′-(((ethane-1,2-diylbis(oxy))bis(4,1-phenylene))bis(methylene))bis(4-((4-chlorophenyl)(methyl)amino)pyridinium) bromide]",–,1.63 ± 0.14 µM,4900 ± 700 nM,2100 ± 600 nM,4300 ± 1100 nM,5600 ± 250 nM,7300 ± 500 nM,3500 ± 720 nM,2200 ± 270 nM,3100 ± 700 nM,2700 ± 130 nM,–,–,–,2.1 to 7.3 µM,–,–,–
"[Br-].[Br-].c1cc(OCCOc2ccc(C[N+]34CCC(CC3)CC4)cc2)ccc1C[N+]12CCC(CC1)CC2 [Compound 10d, 1,1′-(((ethane-1,2-diylbis(oxy))bis(4,1-phenylene))bis(methylene))bis(quinuclidinium) bromide]",–,–,61300 ± 16700 nM,84100 ± 7400 nM,> 100000 nM,16900 ± 2500 nM,> 100000 nM,91400 ± 7600 nM,74300 ± 2600 nM,94300 ± 12400 nM,37500 ± 4200 nM,–,–,–,> 10 µM,37.5 ± 4.45 µM,total loss of activity,–
"OC1C[N+]2(Cc3ccc(OCCOc4ccc(C[N+]56CCC(CC5)C(O)C6)cc4)cc3)CCC1CC2.[Br-].[Br-] (centres unmarked) [Compound 10e, 1,1′-(((ethane-1,2-diylbis(oxy))bis(4,1-phenylene))bis(methylene))bis(3-hydroxyquinuclidinium) bromide]",–,–,> 100000 nM,> 100000 nM,94000 ± 4200 nM,> 100000 nM,> 100000 nM,50900 ± 11700 nM,63200 ± 3900 nM,48000 ± 1100 nM,66000 ± 6600 nM,–,–,–,> 10 µM,9.51 ± 1.14 µM,total loss of activity,–
"CN(c1ccccc1)c1cc[n+](Cc2ccc(OCCOc3ccc(C[n+]4ccc(N(C)c5ccccc5)c5ccccc54)cc3)cc2)c2ccccc12 [Compound 10f, 1,1′-(((ethane-1,2-diylbis(oxy))bis(4,1-phenylene))bis(methylene))bis(4-(methyl(phenyl)amino)quinolinium) bromide]",295 ± 127 nM,6.85 ± 0.81 µM,210 ± 60 nM,63 ± 13 nM,120 ± 17 nM,150 ± 31 nM,60 ± 2 nM,170 ± 65 nM,1 ± 1 nM,470 ± 120 nM,240 ± 50 nM,100 ± 30 nM,1400 ± 600 nM,9.8 ± 2.5 µM,–,–,–,–
"CN(c1ccccc1)c1cc[n+](Cc2ccc(OCCOc3ccc(C[n+]4ccc(N(C)c5ccccc5)c5ccc(Cl)cc54)cc3)cc2)c2cc(Cl)ccc12 [Compound 10h, 1,1′-(((ethane-1,2-diylbis(oxy))bis(4,1-phenylene))bis(methylene))bis(7-chloro-4-(methyl(phenyl)amino)quinolinium) bromide]",–,2.79 ± 0.17 µM,180 ± 80 nM,920 ± 60 nM,350 ± 70 nM,320 ± 62 nM,310 ± 70 nM,320 ± 40 nM,230 ± 40 nM,850 ± 320 nM,26 ± 6 nM,320 ± 30 nM,1000 ± 420 nM,3.7 ± 0.43 µM,–,–,–,16 ± 6.6 µM
"CN(c1ccc(Cl)cc1)c1cc[n+](Cc2ccc(OCCOc3ccc(C[n+]4ccc(N(C)c5ccc(Cl)cc5)c5ccc(Cl)cc54)cc3)cc2)c2cc(Cl)ccc12 [Compound 10i, 1,1′-(((ethane-1,2-diylbis(oxy))bis(4,1-phenylene))bis(methylene))bis(7-chloro-4-((4-chlorophenyl)(methyl)amino)quinolinium) bromide]",–,16.2 ± 0.44 µM,290 ± 100 nM,870 ± 280 nM,1000 ± 150 nM,1500 ± 730 nM,760 ± 260 nM,660 ± 70 nM,150 ± 50 nM,720 ± 90 nM,500 ± 90 nM,–,–,–,–,–,–,–
"c1ccc2c(c1)c(N1CCCCCC1)cc[n+]2Cc1ccc(OCCOc2ccc(C[n+]3ccc(N4CCCCCC4)c4ccccc43)cc2)cc1 [Compound 10j, 1,1′-(((ethane-1,2-diylbis(oxy))bis(4,1-phenylene))bis(methylene))bis(4-(azepan-1-yl)quinolinium) bromide]",–,1.66 ± 0.09 µM,300 ± 68 nM,420 ± 220 nM,150 ± 80 nM,170 ± 84 nM,110 ± 26 nM,110 ± 47 nM,10 ± 5 nM,90 ± 40 nM,160 ± 12 nM,95 ± 21 nM,2000 ± 240 nM,14.3 ± 1.2 µM,–,–,–,–
"Clc1ccc2c(N3CCCCCC3)cc[n+](Cc3ccc(OCCOc4ccc(C[n+]5ccc(N6CCCCCC6)c6ccc(Cl)cc65)cc4)cc3)c2c1 [Compound 10k, 1,1′-(((ethane-1,2-diylbis(oxy))bis(4,1-phenylene))bis(methylene))bis(4-(azepan-1-yl)-7-chloroquinolinium) bromide]",241 ± 30 nM,2.02 ± 0.08 µM,520 ± 20 nM,180 ± 60 nM,270 ± 50 nM,260 ± 74 nM,72 ± 13 nM,280 ± 90 nM,61 ± 3 nM,110 ± 28 nM,36 ± 8 nM,34 ± 7 nM,2100 ± 800 nM,3.2 ± 0.86 µM,–,–,–,–
"C[N+]1(C)CCOC(O)(c2ccc(-c3ccc(C4(O)C[N+](C)(C)CCO4)cc3)cc2)C1 (centres unmarked) [HC-3, reference compound]",180 ± 30 nM,–,–,–,–,–,–,–,–,–,–,–,–,–,–,–,–,–
